Results published in patent publication US12064426B2, “Selective inhibitors of ROCK1 and ROCK2 protein kinases and uses thereof” (GENOSCO Inc., priority 2021, dated 2024).

What was measured:
[1] = molecular target: T1, Recombinant ROCK1 (amino acids 1-477) (Homo sapiens, UniProt Q13464); test: ROCK inhibition assay, LANCE Ultra TR-FRET kinase assay (ROCK1); type: biochemical; conditions: 1 μM ATP, 50 nM ULight-CREBtide substrate
T1 construct: Recombinant ROCK1 (amino acids 1-477); by word order, ROCK1 from Carna Biosciences
Protocol: (§1) Kinase IC50 was determined through an in vitro assay based on LANCE Ultra TR-FRET (Time-Resolved Fluorescence Resonance Energy Transfer) homogeneous technologies method (Perkin Elmer). Recombinant ROCK1 (amino acids 1-477) and ROCK2 (amino acids 5-554) proteins were purchased from Carna Biosciences and SignalChem. Compound activities were measured by Envision and IC50s were calculated. The assays were performed in white LUMITRAC™ 200 96 well half-area microplates from Greiner Bio-One. The kinase reaction buffer consisted of 50 mM HEPES pH 7.5, 1 mM EGTA, 10 mM MgCl2, 2 mM DTT and 0.01% Tween-20. Kinases were incubated with 50 nM (ULight-CREBtide) substrate in the presence of 1 (ROCK1) or 4 (ROCK2) μM ATP. The kinase reaction was carried out for 1 hour before addition of a stopping buffer to a final of 10 mM EDTA and 0.6 nM of LANCE Ultra Europium anti-phospho-CREB (Ser133) antibody (PerkinElmer TRF0200) in LANCE detection buffer. All assay incubations were performed at room temperature, and the microplates were sealed with polyester film during that time. The reaction was incubated for 1 hour, and the signal was read in Envision in TR-FRET mode (excitation at 320 nm and emission at 615/665 nm).
(§2) As used herein, a way to describe potency of inhibitory activity (nM) is a value of inhibitory activity at 50% (IC50).

[2] = molecular target: T2, Recombinant ROCK2 (amino acids 5-554) (Homo sapiens, UniProt O75116); test: ROCK inhibition assay, LANCE Ultra TR-FRET kinase assay (ROCK2); type: biochemical; conditions: 4 μM ATP, 50 nM ULight-CREBtide substrate
T2 construct: ROCK2 (amino acids 5-554); by word order, ROCK2 from SignalChem
Protocol: as §1, §2

T1 sequence (Q13464 1-477): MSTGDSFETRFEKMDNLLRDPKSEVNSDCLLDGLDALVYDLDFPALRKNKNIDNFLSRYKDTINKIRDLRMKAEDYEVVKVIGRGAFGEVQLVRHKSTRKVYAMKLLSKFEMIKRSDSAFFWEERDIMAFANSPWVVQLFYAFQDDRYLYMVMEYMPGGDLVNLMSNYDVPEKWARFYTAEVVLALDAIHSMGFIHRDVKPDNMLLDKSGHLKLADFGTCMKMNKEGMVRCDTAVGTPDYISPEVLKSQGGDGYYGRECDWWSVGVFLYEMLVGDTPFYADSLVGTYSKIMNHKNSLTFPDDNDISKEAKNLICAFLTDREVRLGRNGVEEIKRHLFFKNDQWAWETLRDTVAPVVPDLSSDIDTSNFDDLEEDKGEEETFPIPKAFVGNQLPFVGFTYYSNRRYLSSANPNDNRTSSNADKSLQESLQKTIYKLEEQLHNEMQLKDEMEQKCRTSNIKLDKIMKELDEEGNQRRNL
T2 sequence (O75116 5-554): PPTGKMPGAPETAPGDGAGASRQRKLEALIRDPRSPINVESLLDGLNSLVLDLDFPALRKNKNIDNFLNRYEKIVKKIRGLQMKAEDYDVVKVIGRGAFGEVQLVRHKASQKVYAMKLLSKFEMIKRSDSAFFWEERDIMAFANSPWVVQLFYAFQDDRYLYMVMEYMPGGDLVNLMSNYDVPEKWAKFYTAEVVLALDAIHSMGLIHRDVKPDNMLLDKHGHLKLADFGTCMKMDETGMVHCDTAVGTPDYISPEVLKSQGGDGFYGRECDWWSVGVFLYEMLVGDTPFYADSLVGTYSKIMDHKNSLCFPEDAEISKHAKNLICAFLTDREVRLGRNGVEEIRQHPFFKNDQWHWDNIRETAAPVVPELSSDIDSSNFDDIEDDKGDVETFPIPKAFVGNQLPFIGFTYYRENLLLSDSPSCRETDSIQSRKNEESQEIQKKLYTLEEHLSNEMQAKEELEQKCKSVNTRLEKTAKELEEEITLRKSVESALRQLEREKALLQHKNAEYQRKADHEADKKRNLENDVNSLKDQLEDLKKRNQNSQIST

| SMILES | IC50 [1] [nM] | IC50 [2] [nM] |
| --- | --- | --- |
| O=C(NCC1COC1)c1cccc(Cn2ccc3cc(-c4c[nH]nc4Cl)ccc3c2=O)c1 [Compound 63] | 11 to 100 | < 10 |
| CN1CCC(CNC(=O)c2cccc(Cn3ccc4cc(-c5c[nH]nc5Cl)ccc4c3=O)c2)CC1 [Compound 64] | < 10 | < 10 |
| O=C(NCCO)c1cc(F)cc(Cn2ccc3cc(-c4c[nH]nc4Cl)ccc3c2=O)c1 [Compound 65] | 101 to 500 | 10 to 100 |
| O=C(N[C@H]1CC[C@@H](O)CC1)c1cc(F)cc(Cn2ccc3cc(-c4c[nH]nc4Cl)ccc3c2=O)c1 [Compound 66] | 11 to 100 | < 10 |
| Cc1nocc1-c1ccc2c(=O)n(Cc3cccc(C(=O)NCC(F)(F)F)c3)ccc2c1 [Compound 67] | 11 to 100 | 10 to 100 |
| Cc1nocc1-c1ccc2c(=O)n(Cc3cccc(C(=O)NCC4CC4)c3)ccc2c1 [Compound 68] | 11 to 100 | 10 to 100 |
| Cc1nocc1-c1ccc2c(=O)n(Cc3cccc(C(=O)NCCN4CCOCC4)c3)ccc2c1 [Compound 69] | 101 to 500 | 10 to 100 |
| Cc1nocc1-c1ccc2c(=O)n(Cc3cccc(C(=O)NCCN4CCN(C)CC4)c3)ccc2c1 [Compound 70] | < 10 | < 10 |
| Cc1nocc1-c1ccc2c(=O)n(Cc3cccc(C(=O)NCC4COC4)c3)ccc2c1 [Compound 71] | 11 to 100 | < 10 |
| Cc1nocc1-c1ccc2c(=O)n(Cc3cccc(C(=O)N[C@H]4C[C@@H](O)C4)c3)ccc2c1 [Compound 72] | 101 to 500 | 10 to 100 |
| Cc1nocc1-c1ccc2c(=O)n(Cc3cccc(C(=O)N[C@H]4C[C@H](O)C4)c3)ccc2c1 [Compound 73] | 101 to 500 | 10 to 100 |
| Cc1nocc1-c1ccc2c(=O)n(Cc3cccc(C(=O)N[C@H]4CC[C@@H](O)CC4)c3)ccc2c1 [Compound 74] | 101 to 500 | 10 to 100 |
| Cc1nocc1-c1ccc2c(=O)n(Cc3cccc(C(=O)NCc4ccc(F)nc4)c3)ccc2c1 [Compound 76] | 11 to 100 | < 10 |
| Cc1nocc1-c1ccc2c(=O)n(Cc3cccc(C(=O)NCC4CCN(C)CC4)c3)ccc2c1 [Compound 78] | 11 to 100 | < 10 |

The next lines start with the values.

| IC50 [1] [nM] | IC50 [2] [nM] | SMILES |
| --- | --- | --- |
| 11 to 100 | < 10 | Cc1nocc1-c1ccc2c(=O)n(Cc3cccc(C(=O)NCC4CCNCC4)c3)ccc2c1 [Compound 79] |
| 101 to 500 | 10 to 100 | Cc1nocc1-c1ccc2c(=O)n(Cc3cccc(C(=O)NCC4CCN(C5CC5)CC4)c3)ccc2c1 [Compound 80] |
| 101 to 500 | 10 to 100 | Cc1nocc1-c1ccc2c(=O)n(Cc3cccc(C(=O)NCC4CCN(C(C)C)CC4)c3)ccc2c1 [Compound 81] |
| 101 to 500 | 10 to 100 | Cc1nocc1-c1ccc2c(=O)n(Cc3cccc(C(=O)NCC4CCN(CC(F)(F)F)CC4)c3)ccc2c1 [Compound 83] |
| 101 to 500 | 10 to 100 | Cc1nocc1-c1ccc2c(=O)n(Cc3cccc(C(=O)NCC4CCN(C5COC5)CC4)c3)ccc2c1 [Compound 84] |
| 11 to 100 | < 10 | Cc1nocc1-c1ccc2c(=O)n(Cc3cccc(C(=O)NC4CCNCC4)c3)ccc2c1 [Compound 85] |
| 11 to 100 | < 10 | Cc1nocc1-c1ccc2c(=O)n(Cc3cccc(C(=O)NC4CCN(CC(F)(F)F)CC4)c3)ccc2c1 [Compound 87] |
| 101 to 500 | 10 to 100 | Cc1nocc1-c1ccc2c(=O)n(Cc3cccc(C(=O)NC4CCN(C5COC5)CC4)c3)ccc2c1 [Compound 88] |
| > 501 | 100 to 500 | Cc1nocc1-c1ccc2c(=O)n(Cc3cccc(C(=O)Nc4ccn(C)n4)c3)ccc2c1 [Compound 89] |
| > 501 | 100 to 500 | Cc1nocc1-c1ccc2c(=O)n(Cc3cccc(C(=O)Nc4ccon4)c3)ccc2c1 [Compound 90] |
| 11 to 100 | < 10 | Cc1nocc1-c1ccc2c(=O)n(Cc3cccc(C(=O)Nc4ccc5c(c4)CCOC5)c3)ccc2c1 [Compound 91] |
